Consider seven molecules from the supplement of paper PMC11061612.

For one test, the system named is IST-MES1 (Mesothelioma). Put plainly: combination Emax (second highest fraction inhibited in the dose matrix, 72 h); higher = more inhibition; extreme values may be limits of the assay. Summed up:
(§1)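 Cell lines in DMEM/F12 or RPMI with 10% FBS were plated in 1536-well plates, held 24 hours at 37°C, 5% CO2, then given two-drug dose matrices for 72 hours (DMSO typically 0.2%). Viability was read by CellTiter-Glo 2.0 luminescence and scaled as inhibition from 0 (vehicle wells) to 1 (blank wells). Combination Emax is the second-highest inhibition in the matrix; Bliss excess is observed combination effect minus expected EA + EB − EA·EB, EA and EB being single-agent effects.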

In test [1] the test system is HEC-1 (Endometrial Carcinoma). The description is as above. Put shortly: as §1
In the next test the test system is SF539 (Glioblastoma). The test is described as above. Put shortly: as §1
Test [2] has as its system MFE-280 (Endometrial Carcinoma). The test is described as above. Put shortly:
as §1

Test [3] has as its system PANC-03-27 (Pancreatic Carcinoma). Described as above. Put shortly: as §1
A further test deals with WM278 (Melanoma). Described as above. Put shortly: as §1
Test [4] concerns LK-2 (Squamous Cell Lung Carcinoma). The description is as above. Put shortly:
as §1

The subject of test [5] is CAL-120 (Breast Carcinoma). The description is as above. Put shortly:
as §1

A further test relates to LN-229 (Glioblastoma). The description is as above. Summed up: as §1
Test [6] deals with COLO-680N (Esophageal Squamous Cell Carcinoma). Described as above. Put shortly: as §1
The test system of test [7] is RERF-LC-Sq1 (Squamous Cell Lung Carcinoma). The description is as above. Summed up: as §1
For a further test, the system named is SF268 (Low Grade Glioma). The description is as above. Put shortly:
as §1

Test [8] concerns REH (B-Lymphoblastic Leukemia). Described as above. Summed up:
as §1

Test [9] relates to KE-37 (T-Lymphoblastic Leukemia). Described as above. Put shortly:
as §1

The test system of test [10] is SK-PN-DW (Other Solid Carcinomas). Described as above. Summed up: as §1
Test [11] has as its system NCI-H2342 (Lung Adenocarcinoma). The test is described as above. Summed up:
as §1

Test [12] concerns 23132-87 (Gastric Carcinoma). The test is described as above. Summed up: as §1
Test [13] deals with VAL (B-Cell Non-Hodgkin's Lymphoma). Put plainly: Bliss excess, mean over the matrix (fraction); higher = more synergy. Summed up: as §1
For test [14], the system named is OPM-2 (Plasma Cell Myeloma). The test is described as above. Put shortly: as §1
For test [15], the system named is CAL-120 (Breast Carcinoma). The test is described as above. Put shortly:
as §1
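Throughout, for Bliss excess, mean over the matrix: after 72 h of two-drug dosing.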

As to `CN(C)CCCOc1ccc(-c2ccc3ncc4c(c3c2)n(C2CCOCC2)c(=O)n4C)cn1` [AZD0156] + O=C(c1cc(Cc2n[nH]c(=O)c3ccccc23)ccc1F)N1CCN(C(=O)C2CC2)CC1 [Olaparib] (first compound max 3 µM, partner max 3 µM), the “combination Emax” value with IST-MES1 (Mesothelioma) worked out at 0.212; in test [1], 0.139; in the test on SF539 (Glioblastoma), 0.501; in [2], 0.312; in test [3], 0.225; in the test on WM278 (Melanoma), 0.209. Also, the “combination Emax” value in [4] is 0.372; in test [5] it was 0.29; in the test on LN-229 (Glioblastoma) it was 0.107; in [6], 0.16; in test [7], 0.418; with SF268 (Low Grade Glioma), 0.21. The “combination Emax” value in test [8] is 0.457; in [9], 0.415; in [10], 0.289; in test [11], 0.0678; in test [12] it was 0.644. Moreover, the Bliss excess in [13] came to 0.141; in [14], 0.0067; in test [15], 0.0047.
`CN(CCO)CC[C@H](CSc1ccccc1)Nc1ccc(S(=O)(=O)NC(=O)c2ccc(N3CCC([C@@H](O)c4ccccc4-c4ccc(Cl)cc4)CC3)cc2)cc1S(=O)(=O)C(F)(F)F` [AZD4320] + CCN(CCO)CCCOc1ccc2c(Nc3cc(CC(=O)Nc4cccc(F)c4)[nH]n3)ncnc2c1 [AZD2811] (first compound max 1 µM, 7x7, partner max 1 µM): the “combination Emax” value in the test on IST-MES1 (Mesothelioma) worked out at 0.213; in test [1], 0.494; in the test on SF539 (Glioblastoma) it was 0.584; in test [2], 0.888; in [3] it was 0.638; with WM278 (Melanoma), 0.635. The “combination Emax” value turned out to be 0.967 in [4]; 0.829 in [5]; 0.185 in the test with LN-229 (Glioblastoma); 0.137 in test [6]; 0.275 in test [7]; 0.519 in the test on SF268 (Low Grade Glioma). For the same molecule, the “combination Emax” value in [8] was 1; in test [9], 1; in [10], 0.719; in [11], 0.384; in test [12] it was 0.258. The Bliss excess in test [13] is -0.0063; in [14], 0.128; in [15], 0.0227.
In the case of `NC1(C(=O)N[C@@H](CCO)c2ccc(Cl)cc2)CCN(c2ncnc3[nH]ccc23)CC1` [Capivasertib] + COc1nnc2ccc(N3CCC(c4ccc(OCCN5CCN(C)C(=O)[C@H]5C)cc4)CC3)nn12 [AZD5153] (first compound max 10 µM, 7x7, partner max 1 µM), the “combination Emax” value in the test on IST-MES1 (Mesothelioma) was found to be 0.45; in test [1], 0.688; in the test with SF539 (Glioblastoma), 0.707; in test [2], 0.608; in test [3] it was 0.307; in the test with WM278 (Melanoma) it was 0.734. Further, the “combination Emax” value in [4] was found to be 0.422; in test [5] it was 0.647; in the test on LN-229 (Glioblastoma), 0.344; in test [6], 0.276; in test [7], 1; in the test on SF268 (Low Grade Glioma), 0.488. The “combination Emax” value in test [8] is 0.987; in [9] it was 0.905; in [10], 0.74; in [11], 0.46; in [12] it was 0.659. Besides, the results for the Bliss excess in test [13], in test [14] and in [15] were -0.0867, -0.0129 and 0.101, respectively.
Regarding `Cn1cnc2c(F)c(Nc3ccc(Br)cc3Cl)c(C(=O)NOCCO)cc21` [Selumetinib] + C=CCn1c(=O)c2cnc(Nc3ccc(N4CCN(C)CC4)cc3)nc2n1-c1cccc(C(C)(C)O)n1 [AZD1775] (first compound max 10 µM, partner max 1 µM), the “combination Emax” value is 0.189 with IST-MES1 (Mesothelioma); 0.157 in [1]; 0.972 in the test with SF539 (Glioblastoma); 0.212 in test [2]; 0.815 in [3]; 0.641 in the test on WM278 (Melanoma). Also, the “combination Emax” value in test [4] worked out at 0.931; in test [5], 0.326; in the test on LN-229 (Glioblastoma) it was 0.316; in [6], 0.181; in test [7] it was 0.666; with SF268 (Low Grade Glioma) it was 0.473. The “combination Emax” value came to 0.62 in test [8]; 0.947 in test [9]; 0.798 in test [10]; 0.353 in test [11]; 0.275 in [12]. The Bliss excess was -0.052 in test [13], -0.0124 in test [14] and -0.0502 in test [15].
`C=CCn1c(=O)c2cnc(Nc3ccc(N4CCN(C)CC4)cc3)nc2n1-c1cccc(C(C)(C)O)n1` [AZD1775] + O=C(c1cc(Cc2n[nH]c(=O)c3ccccc23)ccc1F)N1CCN(C(=O)C2CC2)CC1 [Olaparib] (first compound max 1 µM, partner max 10 µM): the “combination Emax” value came to 0.334 with IST-MES1 (Mesothelioma); 0.119 in test [1]; 1 in the test on SF539 (Glioblastoma); 0.601 in test [2]; 0.928 in [3]; 0.209 in the test on WM278 (Melanoma). In addition, the “combination Emax” value was 0.914 in [4]; 0.396 in test [5]; 0.258 in the test on LN-229 (Glioblastoma); 0.283 in [6]; 0.675 in test [7]; 0.251 in the test with SF268 (Low Grade Glioma). For the same molecule, the “combination Emax” value in [8] came to 0.835; in test [9], 1; in test [10], 0.913; in [11] it was 0.229; in test [12], 0.605. Further, the Bliss excess in test [13] was -0.0411; in [14] it was -0.0561; in test [15], 0.0027.
For `COc1nnc2ccc(N3CCC(c4ccc(OCCN5CCN(C)C(=O)[C@H]5C)cc4)CC3)nn12` [AZD5153] + C[C@@H]1COCCN1C2=NC(=NC(=C2)C3(CC3)[S@](=N)(=O)C)C4=C5C=CNC5=NC=C4 [AZD6738] (first compound max 1 µM, 7x7, partner max 10 µM), the “combination Emax” value was determined as 0.644 in the test on IST-MES1 (Mesothelioma); 0.884 in test [1]; 0.882 in the test with SF539 (Glioblastoma); 0.425 in [2]; 0.489 in [3]; 0.671 with WM278 (Melanoma). Also, the “combination Emax” value came out at 0.784 in test [4]; 0.589 in [5]; 0.575 in the test with LN-229 (Glioblastoma); 0.383 in [6]; 0.801 in [7]; 0.773 in the test on SF268 (Low Grade Glioma). Besides, the “combination Emax” value in [8] stood at 0.96; in [9], 0.978; in test [10], 0.868; in test [11] it was 0.673; in test [12], 0.594. For the same molecule, the Bliss excess was -0.111 in test [13], -0.0245 in [14] and 0.0309 in test [15].
On to `NC1(C(=O)N[C@@H](CCO)c2ccc(Cl)cc2)CCN(c2ncnc3[nH]ccc23)CC1` [Capivasertib] + CC(=O)c1c(C)c2cnc(Nc3ccc(N4CCNCC4)cn3)nc2n(C2CCCC2)c1=O [Palbociclib] (first compound max 10 µM, 7x7, partner max 10 µM), for which the “combination Emax” value with IST-MES1 (Mesothelioma) was 0.303; in [1], 0.33; in the test with SF539 (Glioblastoma), 0.578; in [2], 0.555; in [3] it was 0.283; in the test on WM278 (Melanoma) it was 0.402. For the same molecule, the “combination Emax” value in test [4] came out at 0.205; in [5], 0.561; with LN-229 (Glioblastoma) it was 0.376; in test [6], 0.197; in test [7], 0.873; in the test on SF268 (Low Grade Glioma), 0.452. In addition, the “combination Emax” value was 0.609 in test [8]; 0.76 in [9]; 0.615 in test [10]; 0.327 in test [11]; 0.428 in test [12]. In addition, the results for the Bliss excess in test [13], in [14] and in test [15] were -0.0051, 0.0472 and -0.0221, respectively.
